For one experiment, the target named is human recombinant MAOB (Homo sapiens (Human), UniProt P27338). Briefly: MAOB in vitro activity experiment (MAO-Glo). The format is biochemical.
The target of a further experiment is Human recombinant MAOA (Homo sapiens (Human), UniProt P21397). Briefly: MAOA in vitro activity experiment (MAO-Glo). The format is biochemical.

Some results are limits rather than exact numbers.

Sequence of Human recombinant MAOA (P21397 whole entry): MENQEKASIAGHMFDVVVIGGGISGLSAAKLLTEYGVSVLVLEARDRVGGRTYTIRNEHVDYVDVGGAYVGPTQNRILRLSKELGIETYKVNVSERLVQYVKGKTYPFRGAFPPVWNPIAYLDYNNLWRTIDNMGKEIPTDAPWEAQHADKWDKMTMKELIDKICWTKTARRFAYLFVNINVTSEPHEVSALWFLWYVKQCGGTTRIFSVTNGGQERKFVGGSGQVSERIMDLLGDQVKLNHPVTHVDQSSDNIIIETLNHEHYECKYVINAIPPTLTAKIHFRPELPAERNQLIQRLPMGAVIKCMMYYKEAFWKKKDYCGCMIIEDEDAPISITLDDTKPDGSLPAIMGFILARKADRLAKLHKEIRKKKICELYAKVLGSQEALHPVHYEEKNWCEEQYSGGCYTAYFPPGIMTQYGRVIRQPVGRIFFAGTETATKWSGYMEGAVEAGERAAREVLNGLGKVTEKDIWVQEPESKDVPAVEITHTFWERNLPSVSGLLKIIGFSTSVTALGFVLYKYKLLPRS
Sequence of human recombinant MAOB (P27338 whole entry): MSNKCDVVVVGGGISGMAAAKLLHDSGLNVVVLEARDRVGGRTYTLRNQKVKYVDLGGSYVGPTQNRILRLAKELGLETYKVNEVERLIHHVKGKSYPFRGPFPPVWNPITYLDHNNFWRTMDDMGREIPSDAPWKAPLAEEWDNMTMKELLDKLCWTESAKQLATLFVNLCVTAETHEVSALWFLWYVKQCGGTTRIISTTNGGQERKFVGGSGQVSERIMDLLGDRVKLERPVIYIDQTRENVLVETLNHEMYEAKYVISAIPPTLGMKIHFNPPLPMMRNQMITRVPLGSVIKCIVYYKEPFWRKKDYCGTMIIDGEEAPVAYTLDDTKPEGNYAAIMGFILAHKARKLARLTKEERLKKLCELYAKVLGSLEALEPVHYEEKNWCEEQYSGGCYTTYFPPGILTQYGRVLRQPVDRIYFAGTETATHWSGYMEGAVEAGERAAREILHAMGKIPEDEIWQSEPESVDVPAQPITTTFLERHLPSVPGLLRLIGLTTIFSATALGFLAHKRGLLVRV

The term IC50 denotes the point on the concentration scale where inhibition reaches its midpoint. As to `O=S(=O)(c1ccccc1)N1CCc2cc([C@@H]3C[C@H]3NCC3CNC3)ccc21` (relative stereo) [Compound A17, trans-N-(azetidin-3-ylmethyl)-2-(1-(phenylsulfonyl)indolin-5-yl)cyclopropylamine], the IC50 on human recombinant MAOB came to 9.22 ± 0.98 µM; on Human recombinant MAOA, 16.2 ± 0.31 µM.
With `O=S(=O)(c1ccccc1)N1CCc2cc([C@@H]3C[C@H]3NC3CC4(CCNCC4)C3)ccc21` (relative stereo) [Compound A20, trans-N-(2-(1-(phenylsulfonyl)indolin-5-yl)cyclopropyl)-7-azaspiro[3.5]nonane-2-amine], the IC50 at human recombinant MAOB and on Human recombinant MAOA was above 100 µM in each case.
With `CC1(CN[C@@H]2C[C@H]2c2ccc3c(c2)CCN3S(=O)(=O)c2ccccc2)CCNCC1` (relative stereo) [Compound A21, trans-N-((4-methylpiperidin-4-yl)methyl)-2-(1-(phenylsulfonyl)indolin-5-yl)cyclopropylamine], the IC50 at human recombinant MAOB and on Human recombinant MAOA was above 100 µM each time.
With `O=S(=O)(c1ccccc1)N1CCc2cc([C@@H]3C[C@H]3NCC3CCN(Cc4ccccc4)CC3)ccc21` (relative stereo) [Compound A24, trans-N-((1-benzylpiperidin-4-yl)methyl)-2-(1-(phenylsulfonyl)indolin-5-yl)cyclopropylamine], the figures for the IC50 on human recombinant MAOB and at Human recombinant MAOA were above 100 µM and 15.9 ± 2 µM, respectively.
The matching figures for `O=S(=O)(c1ccc(-c2ccccc2)cc1)N1CCc2cc([C@@H]3C[C@H]3NCC3CCNCC3)ccc21` (relative stereo) [Compound A32, Trans-2-(1-(biphenyl-4-ylsulfonyl)indolin-5-yl)-N-(piperidin-4-ylmethyl)cyclopropylamine]: 89.4 ± 2.05 µM and above 100 µM.
The matching figures for `O=S(=O)(c1ccc2ccccc2c1)N1CCc2cc([C@@H]3C[C@H]3NCC3CCNCC3)ccc21` (relative stereo) [Compound A33, Trans-2-(1-(naphthalen-2-ylsulfonyl)indolin-5-yl)-N-(piperidin-4-ylmethyl)cyclopropylamine]: 82 ± 1.39 µM and 35.5 ± 0.87 µM.
Take `O=S(=O)(c1cccc(C(F)(F)F)c1)N1CCc2cc([C@@H]3C[C@H]3NCC3CCNCC3)ccc21` (relative stereo) [Compound A35, trans-N-(piperidin-4-ylmethyl)-2-(1-(3-(trifluoromethyl)benzenesulfonyl)indolin-5-yl)cyclopropylamine]: the IC50 was found to be 86.2 ± 18.7 µM on human recombinant MAOB and 49.8 ± 20.9 µM at Human recombinant MAOA.
Take `O=S(=O)(c1cccc(Cl)c1)N1CCc2cc([C@@H]3C[C@H]3NCC3CCNCC3)ccc21` (relative stereo) [Compound A38, trans-2-(1-(3-chlorobenzenesulfonyl)indolin-5-yl)-N-(piperidin-4-ylmethyl)cyclopropylamine]: the figures for the IC50 on human recombinant MAOB and at Human recombinant MAOA were 40.9 ± 1.41 µM and 73.9 ± 1.34 µM, respectively.
On to `COc1cccc(S(=O)(=O)N2CCc3cc([C@@H]4C[C@H]4NCC4CCNCC4)ccc32)c1` (relative stereo) [Compound A39, trans-2-(1-(3-methoxybenzenesulfonyl)indolin-5-yl)-N-(piperidin-4-ylmethyl)cyclopropylamine], for which the IC50 on human recombinant MAOB is above 100 µM; at Human recombinant MAOA it was 38.6 ± 5.23 µM.
The matching figures for `CS(=O)(=O)N1CCc2cc([C@@H]3C[C@H]3NCC3CCNCC3)ccc21` (relative stereo) [Compound A40, Trans-2-(1-(methylsulfonyl)indolin-5-yl)-N-(piperidin-4-ylmethyl)cyclopropylamine]: above 100 µM and above 100 µM.
For the molecule `NC1CCC(CNC2CC2c2ccc3c(c2)CCN3S(=O)(=O)c2ccccc2)CC1` (stereo not drawn) [Compound A18, trans-4-((2-(1-(phenylsulfonyl)indolin-5-yl)cyclopropylamino)methyl)cyclohexylamine], the IC50 on Human recombinant MAOA was 96.3 ± 2.05 µM.
